Earlier results on five molecules are cited in US20090318371A1 (priority 2006, published 2009).

The subject of data set [1] is human polymorphonuclear leukocyte chemotactic and chemokinetic responses. The conditions noted are these: in vivo and in vitro.
For data set [2] the following is noted: clinical studies.
The conditions of data set [3]: topical administration.
The conditions of data set [4]: Ames test. (In general: In the Ames test, an excess of revertant colonies over the control signals mutagenicity.)
The conditions of data set [5]: topical application to mice for 21 months.
The conditions of data set [6]: Phase III clinical studies.
The conditions of data set [7]: during the following 10 hours of topical administration.
For data set [8] the following is noted: Ames, chromosomal aberration and micronuclei.
The conditions of data set [9]: clinical phase I.
For data set [10] the following is noted: multiple topical administrations, equivalent to 10 mg/ml in water and isopropyl alcohol solution.

SMILES strings stand for the structures.

For the molecule `COc1ccc(-c2ccc3cc(C(=O)O)ccc3c2)cc1C12CC3CC(CC(C3)C1)C2` [Adapalene], the “Anti-inflammatory activity compared to other topical retinoids” value in data set [1] was “superior to other topical retinoids”. Also, in [2], the Plasma levels entry is on record as “no significant plasma levels were detected”. The “Presence of Adapalene compared to Tretinoin on the dermis” value in data set [3] (dermis) is reported as −37%. For the same molecule, in data set [3] (epidermis), the “Presence of Adapalene compared to Tretinoin on the epidermis” value was “+51%”. Further, the “Presence of Adapalene compared to Tretinoin in receptor fluid” value in data set [3] (receptor fluid) is −71%.

For the molecule `O=C(OOC(=O)c1ccccc1)c1ccccc1` [Benzoyl peroxide], in [4], the Mutagenicity entry was “not mutagenic”. In addition, the “Activity against Propionibacterium acnes” value with Propionibacterium acnes is reported as “effective against Propionibacterium acnes”.

`CCC[C@@H]1C[C@@H](C(=O)N[C@@H]([C@H]2O[C@H](SC)[C@H](O)[C@@H](O)[C@H]2O)[C@H](C)Cl)N(C)C1` [Clindamycin]: the “Binding to plasma proteins” value (in vivo) is “Ninety percent or more”. Also, for the setting “urine”, the “Share of administered clindamycin excreted intact in urine” value is 10%.

For `CCOC(=O)c1ccc(C#Cc2ccc3c(c2)C(C)(C)CCS3)nc1` [Tazarotene], the Carcinogenic effects entry in [5] is recorded as “non-carcinogenic effects”. Also, the Adverse effects reported result in data set [6] is “burning sensation, skin scaling and dryness”. Moreover, the “Absorption, share of the dose absorbed” value in data set [7] was “Less than 6.0%”. Moreover, the “Mutagenicity, clastogenic or chromosomal effects” value in [8] is “not mutagenic and has no clastogenic or chromosomal effects”. Further, the “Sensitization, phototoxicity or photoallergicity” value in data set [9] is on record as “does not cause sensitization, phototoxicity or photoallergicity”.

`CCC[C@@H]1C[C@@H](C(=O)N[C@@H]([C@H]2O[C@H](SC)[C@H](OP(=O)(O)O)[C@@H](O)[C@H]2O)[C@H](C)Cl)N(C)C1` [clindamycin phosphate, Clindamycin phosphate]: the “Share of the dosage recovered in urine as clindamycin” value in data set [10] was “less than 0.2%”.
